Measured values taken from patent US7700644B2, “Isoflavonoid dimers” (Novogen Research Pty Ltd, priority 2005, dated 2010).

Assays:
MM200 (Melanoma) = assay: In vitro cytotoxicity, MTT proliferation assay, MM200; type: cell-based, human; details: Homo sapiens
Experimental: (§1) The human pancreatic cancer cell line, HPAC (CRL-2119) was routinely cultured in 1:1 mixture DMEM (Sigma) plus Ham's F12 (Sigma) medium containing HEPES (15 mM), insulin (0.002 mg/ml), transferrin (0.005 mg/ml), hydrocortisone, (40 ng/ml), epidermal growth factor (10 ng/ml). The ovarian cancer cell line CP70 was obtained as a gift from Dr. Gil Mor (Yale University) and cultured in a 1:1 mixture DMEM plus Ham's F12 medium, and SKOV-3 was purchased from ATCC and cultured in McCoy's 5a medium. The breast cancer cell line MDA-MB-468 cultured in Leibovitz's L-15 medium.
(§2) All cultures were supplemented with 10% FCS(CSL, Australia), penicillin (100 U/ml), streptomycin ([…]), L-glutamine (2 mM) and sodium bicarbonate (1.2 g/L), and cultured at 37° C. in a humidified atmosphere of 5% CO2. All remaining cell lines were purchased from ATCC (Maryland, USA) except where noted.
(§3) IC50 values were determined for each cell line. Cells were seeded in 96-well plates at an appropriate cell density as determined from growth kinetics analysis. NFFs were cultured for 5 days and RK-13s for 24 hrs in the absence and presence of the test compounds. Cell proliferation was assessed after the addition of 20 μl of 3-4,5 dimethylthiazol-2,5-diphenyl tetrazolium bromide (MTT, 2.5 mg/ml in PBS, Sigma) for 3-4 hrs at 37° C. according to manufacturer's instructions. IC50 values were calculated from semi-log plots of % of control proliferation on the y-axis against log dose on the x-axis.

NCI-H460 (Lung) = assay: In vitro cytotoxicity, MTT proliferation assay, NCI-H460; type: cell-based, human; details: Homo sapiens
Experimental: as §1, §2, §3

[1] = Oral pharmacokinetics in mice; type: in vivo, female BALB/c mice; details: 50 mg/kg
Experimental: 4,9-Dihydroxy-14,15-dimethoxy-12a-(3′,4′-dimethoxyphenyl)-3,10-dimethyl-2,11-dioxa-(1H,12H)-6b,6c,12a,16b-tetrahydronaphtho[1,2-g]chrysene (2) from Example 6.1 was prepared as homogenous suspensions in 1% CMC (m:v, water). The Cpd. 2 formulation was delivered orally by gavage to female BALB/c mice at a dosage of 50 mg/kg. Three animals were allocated to each time point (15 min, 30 min, 1 hr, 4 hr and 24 hr). At each respective time point, animals were euthanased by cervical dislocation and blood collected. Free Cpd.

DU145 (Prostate) = assay: In vitro cytotoxicity, MTT proliferation assay, DU145; type: cell-based, human; details: Homo sapiens, DU-145
Experimental: as §1, §2, §3

PGE2 synthesis = PGE2 synthesis in human monocytes incubated with LPS; type: cell-based; details: LPS 200 ng/mL, 18 hrs, dose responsive
Experimental: Human peripheral blood monocytes (from three separate individuals) were isolated from buffy coats by lymphoprep gradient separation of mononuclear cells followed by counter-current centrifugal elutriation (Demasi et al. 2000). The test compounds were dissolved in DMSO and added to fresh monocytes After 30 min, LPS was added to achieve a final concentration of 200 ng/mL. After incubation for 18 hrs at 37° C. in 5% CO2, supernatants were removed and PGE2, TXB2 (the stable hydrolysis product of TXA2) and TNFα production were measured by radioimmunoassay (RIA).

HT-29 (Colorectal) cells = assay: Chemosensitisation, combination with antineoplastic agent, HT-29; type: cell-based, human; details: for synergy with Paclitaxel: Cpd. 2 1 μM and 2 μM
Experimental: The utility of the dimeric compounds of the invention to act as a chemosensitiser when used in combination with an array of standard chemotherapeutic agents was assessed. Dimeric Cpd. 2 was applied to various colorectal and pancreatic cancer cell lines to investigate its synergy with standard chemotherapeutic agents including cisplatin, gemcitabine, paclitaxel, doxorubicin, camptothecin and topotecan.
The experiment as outlined in SOP-BD011 (Versions A and B) was used to screen three antineoplastic agents against a given cell line in any ‘one’ experiment (see for example Kanzawa et al., (1997)). The inherent design of the experiment allowed for three sequences of Cpd. 2 and an antineoplastic agent. • 1) Direct Sequence—Cells are treated with both Cpd. 2 and a single antineoplastic agent (combined) for 5 days. • 2) Cpd. 2 First (Forward) Sequence—Cells are treated for 24 hours with Cpd. 2 before replacing with a 24 hour antineoplastic agent treatment; drugs are then washed out and processed on Day 5. • 3) Reverse Sequence—The reverse order to experiment No. 2 above. i.e. a cytotoxin first sequence Results and Conclusions
All data was evaluated using the formulae of theoretic additivity incorporated into a three dimensional model, as described by Kanzawa et al. (1997). This allows for simple data interpretation as values in excess of 10% are defined as ‘synergistic’ (depicted in grey) whilst those below −10% are defined as ‘antagonistic’ (depicted in black).

[2] = tested on: UV irradiation-induced skin oedema; assay: Murine model of UV irradiation-induced skin oedema; type: in vivo, female Skh:hr-1 albino mice; details: for Change in skin thickness (mean ± SD, ×0.01 mm): dorsal skin fold, topical 0.2 ml of 20 μM at 30 min, 2 h, 4 h
From the text: Groups of 4-5 female Skh:hr-1 albino mice were irradiated with 1×3 MEdD (minimal edematous dose) of solar simulated UV radiation (SSUV). Solar-simulated ultraviolet radiation (SSUV) was provided by a planar bank of 6 UVA tube (Hitachi 40W F40T 10/BL, black light) and one UVB tube (Philips TL 40W/12RS) with radiation filtered through a sheet of 0.125 mm cellulose acetate (Eastman Chemical Products, Kingport, Tenn., USA) to give 2.96×10-4W/cm2 UVA and 1.59×10-5W/cm2 UVB. The distance of the UV lamp from the irradiance table surface was approximately 20 cm and temperature was controlled with an electric fan. During irradiation, the cages were rotated below the lights to reduce the variation in radiation intensity in different positions.
Either test compound (0.2 ml of a 20 μM solution) or vehicle (propylene glycol/ethanol/water 1:2:1) was applied to the irradiated dorsal skin at 30 min, 2 h and 4 h post-irradiation. Dorsal skin fold measurements were made with a spring micrometer prior to and at 24 hr and 48 h post-UV exposure. The difference in skin thickness pre- and post-exposure to UVR was calculated for each mouse, and the differences examined between test compound and vehicle control were analysed using an unpaired two-tailed t test.

COc1ccc(C23COc4c(ccc(O)c4C)C2C2c4ccc(O)c(C)c4OCC2c2cc(OC)c(OC)cc23)cc1OC (centres unmarked) [Cpd. 2, 4,9-Dihydroxy-14,15-dimethoxy-12a-(3′,4′-dimethoxyphenyl)-3,10-dimethyl-2,11-dioxa-(1H,12H)-6b,6c,12a,16b-tetrahydronaphtho[1,2-g]chrysene]
IC50 (MM200 (Melanoma)): 6.5 µM
IC50 (NCI-H460 (Lung)): 11.3 ± 4.97 µM
concentration at 15 min ([1]; female, BALB/c, mouse, blood, oral gavage, Time 0.25 (15 min), read-out: Free concentration in blood): 1.33 µM
concentration at 30 min ([1]; female, BALB/c, mouse, blood, oral gavage, Time 0.5 (30 min), read-out: Free concentration in blood): 4.93 µM
concentration at 1 h ([1]; female, BALB/c, mouse, blood, oral gavage, Time 1 (1 hr), read-out: Free concentration in blood): 6.76 µM
concentration at 4 h ([1]; female, BALB/c, mouse, blood, oral gavage, Time 4 (4 hr), read-out: Free concentration in blood): 6.31 µM
concentration at 24 h ([1]; female, BALB/c, mouse, blood, oral gavage, Time 24 (24 hr), read-out: Free concentration in blood): 1.15 µM
half-life compared to dehydroequol ([1]; oral): superior half-life at times up to 4 hours compared to dehydroequol
rate of conjugation compared to dehydroequol ([1]; oral): slow rate of conjugation compared to dehydroequol
IC50 (DU145 (Prostate)): 8.84 ± 0.47 µM
effect on PGE2 synthesis (PGE2 synthesis): induced
synergy with Doxorubicin (HT-29 (Colorectal) cells; Doxorubicin first (C)): no synergy
synergy with Doxorubicin (HT-29 (Colorectal) cells; combination (A) and forward (B) sequences): strong synergistic cytotoxicity
synergy with Paclitaxel (HT-29 (Colorectal) cells; combination (A)): strong synergy
synergy with Gemcitabine (HT-29 (Colorectal) cells; forward (A) and reverse (B) sequences, Cpd. 2 5 μM and 10 μM): synergistic cytotoxicity
synergy with Paclitaxel (HT-29 (Colorectal) cells; forward (B) and reverse (C) 24 hour sequences): Less significant regions of synergy
inhibition of skin oedema ([2]; 24 hrs post-irradiation): significantly inhibited
inhibition of skin oedema ([2]; 48 hrs post-irradiation): significantly inhibited
Change in skin thickness (mean ± SD, ×0.01 mm) ([2]; 24 hrs post-irradiation, vehicle 78 ± 23): 36 ± 22 ×0.01 mm
Change in skin thickness (mean ± SD, ×0.01 mm) ([2]; 48 hrs post-irradiation, vehicle 147 ± 37): 105 ± 16 ×0.01 mm
